Laboratory results from US20040018527A1, “Differential patterns of gene expression that predict for docetaxel chemosensitivity and chemo resistance” (priority 2002, published 2004).

How the values were obtained:
[1] = tested on: MDA-MB-23 1 breast cancer cell line; details: MDA-MB-23 1 cells overexpressing heat shock protein 27; cited from earlier work
[2] = tested on: HSP27-overexpressing cell lines; details: cited from earlier work
[3] = tested on: locally advanced breast cancer; assay: phase II study with neoadjuvant docetaxel, clinical response (residual disease) after 4 cycles; assay type: in vivo, human
From the text: From September 1999 to June 2001, patients with locally advanced breast cancer (primary cancers greater than 4 cm, or with clinically evident axillary metastases) were considered for a phase II study with neoadjuvant docetaxel. The inclusion criteria were 1) age greater than 18 years and a diagnosis of breast cancer confirmed by core needle biopsy, 2) premenopausal status accompanied by appropriate contraception, 3) adequate performance status, and 4) adequate liver and kidney function tests (all within 1.5 times the upper limit of normal). Exclusion criteria included 1) severe underlying chronic illness or disease, and 2) treatment with other chemotherapeutic drugs while on study.
Clinical staging and size of primary tumor was recorded at the start of treatment, at each cycle, and after completion of 4 cycles of chemotherapy. Tumor size (product of the two largest perpendicular diameters) measured before and after 4 cycles of neoadjuvant chemotherapy was used to compute the percentage of residual disease. The median residual disease was then calculated, and this degree of response was then used to divide the cancers into 2 groups of sensitive and resistant categories of approximately equal numbers before gene expression analysis.
Core biopsies of the primary cancers were undertaken before administration of single agent docetaxel as neoadjuvant treatment. Docetaxel at 100 mg/m2 was given every three weeks for a total of 4 cycles, and clinical response assessed after the fourth cycle, at 12 weeks. As the standard of care, patients were continued on neoadjuvant chemotherapy through the full 4 cycles unless there was clear documentation of progressive disease, defined as increase in tumor size of more than 25%. Primary surgery and standard adjuvant therapy was then administered following completion of neoadjuvant docetaxel. In order to maximize the likelihood of obtaining sufficient tissue, approximately six core biopsies using a Bard MaxCore Biopsy Instrument (#MC1410) were taken. Biopsies were performed under local anesthesia, using the same entry point, but reorienting the needle. Two to three core biopsy specimens were immediately transferred for snap freezing at −80° C. for cDNA array analysis. The remaining specimens were fixed in formalin for diagnostic and possible immunohistochemical analysis.
The clinical characteristics of the 24 patients enrolled in this phase II neoadjuvant study are included in Table 1. Before treatment, the median tumor size was 8 cm (range 4 to 30 cm). Prior to gene expression analysis, the sensitivity and resistance was defined based on the percentage of residual disease after treatment. It was determined that the median residual disease after chemotherapy was 30%. Then, it was arbitrarily defined that sensitive tumors were those with 25% residual disease or less and resistant tumors were those with greater than 25% residual disease, as this cut-off divides the numbers of patients almost equally into two groups for statistical comparison. In addition, the presenting tumors were large in this study of locally advanced breast cancer, and tumor regressions of at least 75% following chemotherapy would almost certainly represent clinically responsive disease.

SMILES | association of HSP27 overexpression with drug resistance [1] | sensitivity to docetaxel [2] | resistant tumors with residual tumors 100% or greater of baseline ([3]; 3/13 resistant tumors) | sensitive tumors with minimal residual disease (<10% residual tumor) ([3]; 5/11 sensitive tumors) | residual disease, independent cohort ([3]; 6 additional patients of the same clinical study, all 6 sensitive tumors) | resistant tumors with residual tumors ≧60% ([3]; 7/13 resistant tumors) | patients sensitive to docetaxel (25% residual disease or less) ([3]; 11 of 24 patients) | patients resistant to docetaxel (greater than 25% residual disease) ([3]; 13 of 24 patients) | median residual disease after chemotherapy ([3]; 24 patients, docetaxel 100 mg/m2 every three weeks, 4 cycles, tumor size after vs before, at 12 weeks)
COc1cccc2c1C(=O)c1c(O)c3c(c(O)c1C2=O)C[C@@](O)(C(=O)CO)C[C@@H]3O[C@H]1C[C@H](N)[C@H](O)[C@H](C)O1 [Adriamycin] | resistance |  |  |  |  |  |  |  | 
CC(=O)O[C@@]12CO[C@@H]1C[C@H](O)[C@@]1(C)C(=O)[C@H](O)C3=C(C)[C@@H](OC(=O)[C@H](O)[C@@H](NC(=O)OC(C)(C)C)c4ccccc4)C[C@@](O)([C@@H](OC(=O)c4ccccc4)[C@H]21)C3(C)C [docetaxel] |  | remain sensitive | 23% | 45% | less than 25% | 58% | 46% | 54% | 30%
